Tests used:
[1] = target: Glutamate NMDA receptor; assay: Binding affinity at the glycine binding site of the N-methyl-D-aspartate glutamate receptor in rat cortical membranes using [3H]dichlorokynurenate ([3H]DCKA) as radioligand; format: cell membranes, Membrane
[2] = target: Glutamate receptor 4 (Homo sapiens, UniProt P48058); assay: Binding affinity against AMPA receptor using [3H]AMPA as the radioligand.
Sequence of Glutamate receptor 4 (P48058 whole entry): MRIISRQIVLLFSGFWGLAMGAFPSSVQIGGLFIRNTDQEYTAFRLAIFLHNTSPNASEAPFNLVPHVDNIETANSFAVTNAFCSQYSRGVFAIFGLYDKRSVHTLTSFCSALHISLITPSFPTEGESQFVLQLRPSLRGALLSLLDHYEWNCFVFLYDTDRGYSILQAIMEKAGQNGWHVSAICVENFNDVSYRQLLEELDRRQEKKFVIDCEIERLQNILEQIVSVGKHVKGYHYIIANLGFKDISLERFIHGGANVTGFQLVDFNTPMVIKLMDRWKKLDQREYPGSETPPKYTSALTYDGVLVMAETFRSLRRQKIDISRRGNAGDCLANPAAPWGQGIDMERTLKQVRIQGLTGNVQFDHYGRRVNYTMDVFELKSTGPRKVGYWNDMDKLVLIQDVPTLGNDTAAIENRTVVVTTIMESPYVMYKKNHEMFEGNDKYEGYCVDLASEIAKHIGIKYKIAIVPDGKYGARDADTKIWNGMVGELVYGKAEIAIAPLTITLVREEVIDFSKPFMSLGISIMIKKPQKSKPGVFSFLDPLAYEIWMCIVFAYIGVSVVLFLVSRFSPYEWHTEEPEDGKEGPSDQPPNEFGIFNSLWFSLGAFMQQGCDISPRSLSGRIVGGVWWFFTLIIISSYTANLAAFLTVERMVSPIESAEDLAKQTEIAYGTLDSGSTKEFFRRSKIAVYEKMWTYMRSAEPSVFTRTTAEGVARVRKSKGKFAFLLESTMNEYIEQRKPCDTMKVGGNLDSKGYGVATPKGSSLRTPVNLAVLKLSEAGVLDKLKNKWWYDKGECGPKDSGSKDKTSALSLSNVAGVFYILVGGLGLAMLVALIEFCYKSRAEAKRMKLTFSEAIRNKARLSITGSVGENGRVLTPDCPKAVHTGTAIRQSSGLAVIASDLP

Work on `O=C(O)CCc1c(C(=O)O)[nH]c2cc(Cl)cc(Cl)c12` yielded an IC50 [1] of 50 nM.
With `CCOC(=O)C1Nc2cc(Cl)cc(Cl)c2S(=O)(=O)N1C` (stereo not given) the IC50 [1] was 400 nM.
`CCOC(=O)C1Nc2cc(Cl)cc(Cl)c2S(=O)(=O)N1Cc1cccc(C)c1` (stereo not given) showed an IC50 [1] of 14 nM.
For `CCOC(=O)C1Nc2cc(Cl)cc(Cl)c2S(=O)(=O)N1Cc1cccc(Oc2ccccc2)c1` (stereo not given), the IC50 [1] was 9 nM.
`O=C(O)C1Nc2cc(Cl)cc(Cl)c2S(=O)(=O)N1Cc1cccc(I)c1` (stereo not given) was tested, and the IC50 [1] was 8 nM.
Work on `CCOC(=O)C1Nc2cc(Cl)cc(Cl)c2S(=O)(=O)N1Cc1cccc(C#N)c1` (stereo not given) yielded an IC50 [1] of 17 nM.
Molecule `CCOC(=O)C1Nc2cc(Cl)cc(Cl)c2S(=O)(=O)N1CCSc1ccccc1` (stereo not given) has an IC50 [1] of 38 nM.
`O=C(O)C1Nc2cc(Cl)cc(Cl)c2S(=O)(=O)N1Cc1ccccc1C(F)(F)F` (stereo not given) showed an IC50 [1] of 100 nM.
`O=C(O)C1Nc2cc(Cl)cc(Cl)c2S(=O)(=O)N1Cc1ccccc1` (stereo not given) was tested, and the IC50 [1] was 48 nM.
For `CCOC(=O)C1Nc2cc(Cl)cc(Cl)c2S(=O)(=O)N1Cc1ccc(F)cc1` (stereo not given), the IC50 [1] was 44 nM.
`O=C(O)C1Nc2cc(Cl)cc(Cl)c2S(=O)(=O)N1Cc1cccc(F)c1` (stereo not given) was tested, and the IC50 [1] was 13 nM.
`O=C(O)c1cc(O)c2c(Cl)cc(Cl)cc2n1` was tested, and the IC50 [1] was 46 nM.
For `O=C(O)C1Nc2cc(Cl)cc(Cl)c2S(=O)(=O)N1Cc1cccc(Br)c1` (stereo not given), the IC50 [2] was 38000 nM.
Molecule `CCOC(=O)C1Nc2cc(Cl)cc(Cl)c2S(=O)(=O)N1Cc1cccc([N+](=O)[O-])c1` (stereo not given) has an IC50 [1] of 12 nM.
`CCOC(=O)C1Nc2cc(Cl)cc(Cl)c2S(=O)(=O)N1Cc1ccc(C)cc1` (stereo not given) was tested, and the IC50 [1] was 45 nM.
In the case of `CCOC(=O)C1Nc2cc(Cl)cc(Cl)c2S(=O)(=O)N1Cc1cccc(-c2ccccc2)c1` (stereo not given), the IC50 [1] is reported as 20 nM.
For `CCOC(=O)C1Nc2cc(Cl)cc(Cl)c2S(=O)(=O)N1Cc1ccc(OC)cc1` (stereo not given), the IC50 [1] was 40 nM.
`O=C(O)C1Nc2cc(Cl)cc(Cl)c2S(=O)(=O)N1CCCc1ccccc1` (stereo not given) was tested, and the IC50 [1] was 33 nM.
With `O=C(O)C1Nc2cc(Cl)cc(Cl)c2S(=O)(=O)N1Cc1ccc(C(F)(F)F)cc1` (stereo not given) the IC50 [1] was 92 nM.
For `O=C(O)CN1C(C(=O)O)Nc2cc(Cl)cc(Cl)c2S1(=O)=O` (stereo not given), the IC50 [1] was 9500 nM.
For `O=C(O)C1Nc2cc(Cl)cc(Cl)c2S(=O)(=O)N1CCCCCc1ccccc1` (stereo not given), the IC50 [1] was 36 nM.
Molecule `O=C(O)C1Nc2cc(Cl)cc(Cl)c2S(=O)(=O)N1Cc1cccc(OC(F)(F)F)c1` (stereo not given) has an IC50 [1] of 20 nM.
With `CCOC(=O)C1Nc2cc(Cl)cc(Cl)c2S(=O)(=O)N1Cc1cccc(OC)c1` (stereo not given) the IC50 [1] was 12 nM.
For `CCOC(=O)C1Nc2cc(Cl)cc(Cl)c2S(=O)(=O)N1Cc1ccc(Cl)cc1` (stereo not given), the IC50 [1] was 20 nM.
Work on `CCOC(=O)C1Nc2cc(Cl)cc(Cl)c2S(=O)(=O)N1Cc1ccccc1Cl` (stereo not given) yielded an IC50 [1] of 48 nM.
For `CCOC(=O)C1Nc2cc(Cl)cc(Cl)c2S(=O)(=O)N1CC(=O)c1ccccc1` (stereo not given), the IC50 [1] was 22 nM.
Molecule `CCOC(=O)C1Nc2cc(Cl)cc(Cl)c2S(=O)(=O)N1CCOc1ccccc1` (stereo not given) has an IC50 [1] of 41 nM.
Molecule `O=C(O)C1Nc2cc(Cl)cc(Cl)c2S(=O)(=O)N1c1ccccc1` (stereo not given) has an IC50 [1] of 2600 nM.
Work on `O=C(O)C1Nc2cc(Cl)cc(Cl)c2S(=O)(=O)N1CCS(=O)(=O)c1ccccc1` (stereo not given) yielded an IC50 [1] of 70 nM.
`CCOC(=O)C1Nc2cc(Cl)cc(Cl)c2S(=O)(=O)N1Cc1cccc(C(F)(F)F)c1` (stereo not given) was tested, and the IC50 [1] was 18 nM.
In the case of `CCOC(=O)C1Nc2cc(Cl)cc(Cl)c2S(=O)(=O)N1Cc1cccc(N)c1` (stereo not given), the IC50 [1] is reported as 29 nM.
Molecule `CCOC(=O)C1Nc2cc(Cl)cc(Cl)c2S(=O)(=O)N1Cc1cccc(Cl)c1` (stereo not given) has an IC50 [1] of 11 nM.
`O=C(O)C1Nc2cc(Cl)cc(Cl)c2S(=O)(=O)N1CCc1ccccc1` (stereo not given) was tested, and the IC50 [1] was 90 nM.
Molecule `CCOC(=O)C1Nc2cc(Cl)cc(Cl)c2S(=O)(=O)N1Cc1ccccc1F` (stereo not given) has an IC50 [1] of 26 nM.
`O=C(O)C1Nc2cc(Cl)cc(Cl)c2S(=O)(=O)N1CCCCc1ccccc1` (stereo not given) showed an IC50 [1] of 77 nM.
With `CCOC(=O)C1Nc2cc(Cl)cc(Cl)c2S(=O)(=O)N1Cc1ccccc1C` (stereo not given) the IC50 [1] was 80 nM.
In the case of `COc1ccccc1CN1C(C(=O)O)Nc2cc(Cl)cc(Cl)c2S1(=O)=O` (stereo not given), the IC50 [1] is reported as 21 nM.
`O=C(Nc1ccccc1)N[C@H]1C[C@H](C(=O)O)Nc2cc(Cl)cc(Cl)c21` (single isomer, unassigned) gave an IC50 [1] of 26 nM.
Molecule `O=C(O)C1Nc2cc(Cl)cc(Cl)c2S(=O)(=O)N1Cc1cccc(Br)c1` (single isomer, unassigned; (-)) has an IC50 [1] of 4 nM.
With `O=C(O)C1Nc2cc(Cl)cc(Cl)c2S(=O)(=O)N1Cc1cccc(Br)c1` (stereo in doubt; (+)8k) the IC50 [1] was 1880 nM.

Source: ChEMBL document CHEMBL1128020, “Synthesis and sar of 2h-1,2,4-benzothiadiazine-1,1-dioxide-3-carboxylic acid derivatives as novel potent glycine antagonists of the nmda receptor-channel complex” (Bioorg Med Chem Lett, 1994)
